Results published in patent US20260098026A1, “M4 ACTIVATORS/MODULATORS AND USES THEREOF” (Cerevel Therapeutics, LLC, priority 2022, published 2026).

Assays:
[1] = target: T1, M3 muscarinic acetylcholine receptor (mAChR) (Homo sapiens, UniProt P20309); assay: FLIPR calcium assay (Fluo 8), M3-overexpressing CHO-K1 cells; format: cell-based; conditions: FLIPR calcium
T1 construct: expressed in transfected cells; host or cells: CHO-K1
Description: Stimulation of a Gq-coupled G-protein coupled receptors (GPCRs), result in an efflux of calcium from the endoplasmic reticulum to the cytoplasm (Berridge, 1993), thus rendering this assay appropriate for the assessment of M1, M3 and M5 receptors. CHO-K1 cells overexpressing the M1, M3, or M5 muscarinic acetylcholine receptor (mAChR) were dispensed at 15,000 cells per well in 30 μl volume to 384-well plates and grown overnight at 37° C. in a 5% CO2 atmosphere. Fluo-8 Solution, 10 μl per well, was added to each well and incubated for 30 minutes at 37° C. in a 5% CO2 atmosphere. Compounds diluted in Hanks' balanced salt solution (HBSS) were transferred to the cell assay plate at 10 μl per well, and then read on a FLIPR instrument. EC50 and Emax figures were calculated from the resulting data for each receptor subtype.

[2] = target: T2, M4 mAChR (Homo sapiens, UniProt P08173); assay: cAMP TR-FRET assay with forskolin, M4-overexpressing CHO-K1 cells; format: cell-based; conditions: cAMP TR-FRET with forskolin
T2 construct: expressed in transfected cells; host or cells: CHO-K1
T2 sequence (P08173 1-479): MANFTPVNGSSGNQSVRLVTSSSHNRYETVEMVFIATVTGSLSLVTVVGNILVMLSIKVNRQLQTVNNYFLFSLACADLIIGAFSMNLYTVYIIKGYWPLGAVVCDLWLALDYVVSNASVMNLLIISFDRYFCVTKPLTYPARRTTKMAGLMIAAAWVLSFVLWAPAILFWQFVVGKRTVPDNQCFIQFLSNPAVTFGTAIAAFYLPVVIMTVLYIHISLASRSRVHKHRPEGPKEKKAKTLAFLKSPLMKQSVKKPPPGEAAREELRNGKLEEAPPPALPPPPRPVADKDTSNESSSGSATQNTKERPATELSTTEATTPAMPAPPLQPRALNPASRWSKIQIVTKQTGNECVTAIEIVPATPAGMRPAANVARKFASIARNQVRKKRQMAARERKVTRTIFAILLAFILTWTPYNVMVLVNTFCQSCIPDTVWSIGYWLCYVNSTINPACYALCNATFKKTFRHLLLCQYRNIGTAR
Text: The M2 and M4 mACh receptors are Gi-coupled receptors which, upon activation, produce a decrease in cAMP. Assays were developed that measured the potency and efficacy of compounds at the M2 or M4 mAChR using M2- or M4-overexpressing CHO-K1 cell lines. Time-resolved fluorescence resonance energy transfer (TR-FRET) technology was used, where signal occurs as a result of transfer of energy if the donor molecule is in close proximity to an acceptor molecule when the molecules have bound to the molecule of interest. The cAMP detection is a competition binding assay, where cAMP produced by cells competes for binding with the labeled donor molecule to the anti-cAMP acceptor antibody. Due to the low basal levels of cAMP in the CHO-K1 cell line, forskolin was used to increase cAMP levels to enable assessment of agonist activity at the mAChR of interest.

T1 sequence (P20309 whole entry): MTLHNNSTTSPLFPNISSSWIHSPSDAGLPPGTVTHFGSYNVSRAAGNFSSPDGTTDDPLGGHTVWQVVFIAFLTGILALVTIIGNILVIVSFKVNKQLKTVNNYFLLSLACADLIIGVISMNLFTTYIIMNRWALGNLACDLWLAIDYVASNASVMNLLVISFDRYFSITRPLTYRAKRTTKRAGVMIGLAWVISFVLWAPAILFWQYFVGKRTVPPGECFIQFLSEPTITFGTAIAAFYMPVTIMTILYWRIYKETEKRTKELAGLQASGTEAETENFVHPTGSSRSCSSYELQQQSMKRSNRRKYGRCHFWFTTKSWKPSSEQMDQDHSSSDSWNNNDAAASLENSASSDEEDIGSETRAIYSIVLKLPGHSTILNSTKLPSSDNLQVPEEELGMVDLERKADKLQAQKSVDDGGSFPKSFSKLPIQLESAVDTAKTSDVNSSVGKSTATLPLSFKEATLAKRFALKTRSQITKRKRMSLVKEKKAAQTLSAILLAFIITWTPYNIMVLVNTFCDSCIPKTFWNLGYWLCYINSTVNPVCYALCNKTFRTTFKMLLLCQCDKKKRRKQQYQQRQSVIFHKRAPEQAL

Structure (SMILES)	EC50 [1] [µM]	Emax [2] [%]
CCOC(=O)N1CC2(CC[C@@H](N3CCN(c4cc(F)cnc4-c4cnc(F)c(F)c4)CC3)C2)C1 [Compound A79]	> 10	80 to 100
CCOC(=O)N1CC2(CC[C@@H](N3CCN(c4cc(F)cnc4-c4c(C)n[nH]c4C)CC3)C2)C1 [Compound A81]	> 10	80 to 100
CCOC(=O)N1CC2(CC[C@@H](N3CCN(c4cc(F)cnc4-c4cnc(C#N)c(F)c4)CC3)C2)C1 [Compound A83]	> 10	80 to 100
C=CCn1cc(-c2ncc(F)cc2N2CCN([C@@H]3CCC4(C3)CN(C(=O)OCC)C4)CC2)cn1 [Compound A84]	> 10	80 to 100
CCOC(=O)N1CC2(CC[C@@H](N3CCN(c4cc(F)cnc4-c4c[nH]nc4C(F)(F)F)CC3)C2)C1 [Compound A85]	> 10	80 to 100
CCOC(=O)N1CC2(CC[C@@H](N3CCN(c4cc(F)cnc4-c4csc(CO)c4)CC3)C2)C1 [Compound A86]	> 10	80 to 100
CCOC(=O)N1CC2(CC[C@@H](N3CCN(c4cc(F)cnc4-c4ccc(CO)s4)CC3)C2)C1 [Compound A88]	> 10	80 to 100
CCOC(=O)N1CC2(CC[C@@H](N3CCN(c4cc(F)cnc4-c4ccnc5c4ccn5C)CC3)C2)C1 [Compound A89]	> 10	80 to 100
CCOC(=O)N1CC2(CC[C@@H](N3CCN(c4cc(F)cnc4-c4cccc(CCO)c4)CC3)C2)C1 [Compound A90]	> 10	80 to 100
CCOC(=O)N1CC2(CC[C@@H](N3CCN(c4cc(F)cnc4-c4ccn5ccnc5c4)CC3)C2)C1 [Compound A92]	> 10	80 to 100
CCOC(=O)N1CC2(CC[C@@H](N3CCN(c4cc(F)cnc4-c4ccc(C#N)cc4OC)CC3)C2)C1 [Compound A94]	> 10	80 to 100
CCOC(=O)N1CC2(CC[C@@H](N3CCN(c4cc(F)cnc4-c4ccc5c(c4)OCCN5)CC3)C2)C1 [Compound A95]	> 10	80 to 100
CCOC(=O)N1CC2(CC[C@@H](N3CCN(c4cc(F)cnc4-c4ccc5nccn5c4)CC3)C2)C1 [Compound A96]	> 10	80 to 100
CCOC(=O)N1CC2(CC[C@@H](N3CCN(c4cc(F)cnc4-c4cccc(C(=O)NC)c4)CC3)C2)C1 [Compound A97]	> 10	80 to 100
CCOC(=O)N1CC2(CC[C@@H](N3CCN(c4cc(F)cnc4-c4ccnc(C)c4)CC3)C2)C1 [Compound A98]	> 10	80 to 100
CCOC(=O)N1CC2(CC[C@@H](N3CCN(c4cc(F)cnc4-c4cnc5c(ccn5C)c4)CC3)C2)C1 [Compound A99]	> 10	80 to 100
CCOC(=O)N1CC2(CC[C@@H](N3CCN(c4cc(F)cnc4-c4cc(C)[nH]n4)CC3)C2)C1 [Compound A101]	> 10	80 to 100
CCOC(=O)N1CC2(CC[C@@H](N3CCN(c4cc(F)cnc4-c4ccn(C)c(=O)c4)CC3)C2)C1 [Compound A102]	> 10	80 to 100
CCOC(=O)N1CC2(CC[C@@H](N3CCN(c4cc(F)cnc4-c4ccc(F)c(CO)c4)CC3)C2)C1 [Compound A105]	> 10	80 to 100
CCOC(=O)N1CC2(CC[C@@H](N3CCN(c4cc(F)cnc4-c4ccnc(OC)c4F)CC3)C2)C1 [Compound A106]	> 10	80 to 100
CCOC(=O)N1CC2(CC[C@@H](N3CCN(c4cc(F)cnc4-c4ccc(OCC)nc4)CC3)C2)C1 [Compound A107]	> 10	80 to 100

The next lines start with the values.

EC50 [1] [µM]	Emax [2] [%]	Structure (SMILES)
> 10	80 to 100	CCOC(=O)N1CC2(CC[C@@H](N3CCN(c4cc(F)cnc4-c4cccc(C#N)c4)CC3)C2)C1 [Compound A39]
> 10	80 to 100	CCOC(=O)N1CC2(CC[C@@H](N3CCN(c4cc(F)cnc4-c4ccc(O)c(OC)c4)CC3)C2)C1 [Compound A40]
> 10	80 to 100	CCOC(=O)N1CC2(CC[C@@H](N3CCN(c4cc(F)cnc4-c4cncc(C(C)(C)O)c4)CC3)C2)C1 [Compound A41]
> 10	80 to 100	CCOC(=O)N1CC2(CC[C@@H](N3CCN(c4cc(F)cnc4-c4cc(F)ccc4O)CC3)C2)C1 [Compound A42]
> 10	80 to 100	CCOC(=O)N1CC2(CC[C@@H](N3CCN(c4cc(F)cnc4-c4ccc(C#N)c(OC)c4)CC3)C2)C1 [Compound A43]
> 10	80 to 100	CCOC(=O)N1CC2(CC[C@@H](N3CCN(c4cc(F)cnc4-c4ccc(O)c(F)c4)CC3)C2)C1 [Compound A44]
> 10	80 to 100	CCOC(=O)N1CC2(CC[C@@H](N3CCN(c4cc(F)cnc4-c4ccncc4F)CC3)C2)C1 [Compound A45]
> 10	80 to 100	CCOC(=O)N1CC2(CC[C@@H](N3CCN(c4cc(F)cnc4-c4cccnc4OC)CC3)C2)C1 [Compound A46]
> 10	80 to 100	CCOC(=O)N1CC2(CC[C@@H](N3CCN(c4cc(F)cnc4-c4ccccc4C#N)CC3)C2)C1 [Compound A47]
> 10	80 to 100	CCOC(=O)N1CC2(CC[C@@H](N3CCN(c4cc(F)cnc4-c4ccc5c(c4)OCCO5)CC3)C2)C1 [Compound A48]
> 10	50 to 79.9	CCOC(=O)N1CC2(CC[C@@H](N3CCN(c4cc(F)cnc4-c4cc(C)cnc4OC)CC3)C2)C1 [Compound A50]
> 10	80 to 100	CCOC(=O)N1CC2(CC[C@@H](N3CCN(c4cc(F)cnc4-c4ccc5cnn(C)c5c4)CC3)C2)C1 [Compound A54]
> 10	80 to 100	CCOC(=O)N1CC2(CC[C@@H](N3CCN(c4cc(F)cnc4-c4ccnc(F)c4)CC3)C2)C1 [Compound A55]
> 10	80 to 100	CCOC(=O)N1CC2(CC[C@@H](N3CCN(c4cc(F)cnc4-c4ccc(N(C)C)nc4)CC3)C2)C1 [Compound A56]
> 10	80 to 100	CCOC(=O)N1CC2(CC[C@@H](N3CCN(c4cc(F)cnc4-c4cccc(CO)c4)CC3)C2)C1 [Compound A57]
> 10	80 to 100	CCOC(=O)N1CC2(CC[C@@H](N3CCN(c4cc(F)cnc4-c4cccc5c4cnn5C)CC3)C2)C1 [Compound A58]
> 10	80 to 100	CCOC(=O)N1CC2(CC[C@@H](N3CCN(c4cc(F)cnc4-c4cccc5nn(C)cc45)CC3)C2)C1 [Compound A60]
> 10	80 to 100	CCOC(=O)N1CC2(CC[C@@H](N3CCN(c4cc(F)cnc4-c4cccc5c[nH]nc45)CC3)C2)C1 [Compound A61]
> 10	80 to 100	CCOC(=O)N1CC2(CC[C@@H](N3CCN(c4cc(F)cnc4-c4cccc5n[nH]cc45)CC3)C2)C1 [Compound A62]
> 10	80 to 100	CCOC(=O)N1CC2(CC[C@@H](N3CCN(c4cc(F)cnc4-c4ccncc4C#N)CC3)C2)C1 [Compound A64]
> 10	50 to 79.9	CCOC(=O)N1CC2(CC[C@@H](N3CCN(c4cc(F)cnc4-c4cccc5cnn(C)c45)CC3)C2)C1 [Compound A65]
> 10	80 to 100	CCOC(=O)N1CC2(CC[C@@H](N3CCN(c4cc(F)cnc4-c4ccc5cn(C)nc5c4)CC3)C2)C1 [Compound A68]
> 10	80 to 100	CCOC(=O)N1CC2(CC[C@@H](N3CCN(c4cc(F)cnc4-c4cnccc4OC)CC3)C2)C1 [Compound A69]
> 10	50 to 79.9	CCOC(=O)N1CC2(CC[C@@H](N3CCN(c4cc(F)cnc4-c4ccc(OC)c(CO)c4)CC3)C2)C1 [Compound A72]
> 10	80 to 100	CCOC(=O)N1CC2(CC[C@@H](N3CCN(c4cc(F)cnc4-c4cnc(N(C)C)nc4)CC3)C2)C1 [Compound A73]
> 10	80 to 100	CCOC(=O)N1CC2(CC[C@@H](N3CCN(c4cc(F)cnc4-c4ccnn4CC(C)C)CC3)C2)C1 [Compound A77]
> 10	80 to 100	CCOC(=O)N1CC2(CC[C@@H](N3CCN(c4cc(F)cnc4-c4c(C)noc4C)CC3)C2)C1 [Compound A78]
